Where a SMILES comes first, the peptide text is derived from it.
Target: T1, GRPR (Homo sapiens, UniProt P30550)
T1 construct: endogenous in cells; host or cells: MDA-MB-231 human breast cancer cells (from NCCS, Pune)
Assay: In vitro receptor binding assay, competition with 99mTc-BNS
Conditions: unlabeled analogs, radioligand 99mTc-BNS
Description: One day prior to the assay, cells at the confluence were placed in 12-well plates. […] Inhibitory assays were done on GRPR-expressing MDA-MB-231 human breast cancer cells using the standard procedure with modifications. […] After 1-h incubation, cells were washed twice with cold PBS. Receptor bound radioactivity was recovered by solubilizing the cells with 400 μL 1 N NaOH at 37 °C. Binding activities were evaluated in the gamma counter. IC50 (the best-fit 50% inhibitory concentration) values were determined using nonlinear regression.
It may be mentioned that non-radioactive Re complex can be used in place of its unlabeled ligand to determine the binding affinity after complexation reaction. This is being proposed to use the non-radioactive Re complex in place of its unlabeled ligand to determine the binding affinity after complexation in future studies.

T1 sequence (P30550 whole entry): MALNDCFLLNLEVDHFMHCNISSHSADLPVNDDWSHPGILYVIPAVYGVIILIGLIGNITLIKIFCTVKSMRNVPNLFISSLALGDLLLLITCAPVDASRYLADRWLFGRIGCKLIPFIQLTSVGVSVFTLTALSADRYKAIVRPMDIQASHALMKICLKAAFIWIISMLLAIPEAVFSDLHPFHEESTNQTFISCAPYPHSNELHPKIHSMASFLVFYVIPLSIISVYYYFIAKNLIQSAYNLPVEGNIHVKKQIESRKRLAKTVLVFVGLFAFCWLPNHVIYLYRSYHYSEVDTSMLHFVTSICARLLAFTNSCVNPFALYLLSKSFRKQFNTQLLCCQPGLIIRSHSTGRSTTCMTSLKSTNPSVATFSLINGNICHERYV

## CCCC[C@H](NC(=O)[C@@H](Cc1ccccc1)NC(=O)[C@H](Cc1c[nH]cn1)NC(=O)CNC(=O)[C@@H](NC(=O)[C@H](C)NC(=O)[C@H](Cc1c[nH]c2ccccc12)NC(=O)[C@H](CCC(N)=O)NC(=O)[C@H](CC(=O)O)NC(=O)c1ccc(NN)nc1)C(C)C)C(N)=O [BN1, HYNIC-Asp-[D-Phe^13Nle^14]BN(7-14)NH2] (HELM PEPTIDE1{[NNc1ccc(C(=O)[*:2])cn1].D.Q.W.A.V.G.H.[dF].[Nle].[am]}$$$$V2.0)
GRP receptor expressing MDA-MB-231 cells, values printed in Fig. 4
  IC50: 4.47 nM
MDA-MB-231 cells/membranes, 1 h, 37 °C
  IC50: 3.96 nM

From publication PMC6423188, “HYNIC and DOMA conjugated radiolabeled bombesin analogs as receptor-targeted probes for scintigraphic detection of breast tumor” (EJNMMI Research, 2019)
